Measured values taken from article PMC8279406 (Journal of Medicinal Chemistry, 2021).

Target: T1, human α5β1 integrin (Homo sapiens, UniProt P05556+P08648)
T1 construct: purchased R&D Systems (Biotechne brand) 3230-A5
Assay: Fibronectin-α5β1 competitive solid-phase ELISA binding assay
Conditions: immobilized fibronectin, soluble integrin
Procedure: The affinity and selectivity of the integrin peptide ligands were ascertained according to a modified method previously reported by some of us.[33],[47] The binding was determined in a competitive solid-phase binding assay using extracellular matrix proteins, soluble integrins, and pertinent integrin-specific antibodies in an enzyme-linked immunosorbent assay (ELISA).
The experimental procedure was as described for the αvβ6 assay, except for the following modifications. […] Visualization and analysis were performed as described above.

Structure (SMILES): CN1C(=O)[C@H](C2CCCCC2)NC(=O)[C@H](CC(=O)O)NC(=O)CNC(=O)[C@H](CCCNC(=N)N)NC(=O)CC[C@H]1C(N)=O [compound 6, [Arg-Gly-Asp-Chg-(NMe)Glu]-CONH2]
- IC50: 112 ± 26 nM
